Measurements as given in patent US11415579B2, “Assay for measuring a rate of reaction between a target and a ligand candidate” (Imperial College Innovations Ltd., priority 2016, dated 2022).

Legend:
[1] = Kinetic thiol consumption assay with model thiol glutathione; format: physicochemical; set-up: Rate constant with glutathione (k(GSH)): unit not given here; conditions: for Rate constant with glutathione (k(GSH)): 500 μM ligand, 5 μM thiol, phosphate buffer pH 8; for Rate constant with Glutathione: Protein: Glutathione, cysteine position NA, in h-1
In short: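 First, 5 μM glutathione in degassed phosphate buffer (pH 8) receives immobilized TCEP beads (2% v/v). Then acrylamide is added and plates incubate 1 h at room temperature. Finally, fluorescence (380/470 nm) is normalized and fitted to first-order decay for rate constants.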

[2] = target: T1, human cyclin-dependent kinase 2 (Cdk2) (Homo sapiens, UniProt P24941); experiment: Kinetic thiol consumption assay with wild type Cdk2 (C177); format: binding; set-up: key to Rate enhancement, Cdk2 WT: k(Cdk2) divided by k(model thiol); Rate constant with Cdk2 (k(Cdk2)): unit not given here; conditions: for Rate constant with Cdk2 (k(Cdk2)): 500 μM ligand, 5 μM thiol, phosphate buffer pH 8; for Rate enhancement, Cdk2 WT: no additional mutations; for Rate constant with Cdk2 WT: Protein: Cdk2, cysteine position WT, in h^-1; for k(Cdk2)/k(Cdk2_mut) rate enhancement: model thiol Cdk2[C177A, F80C, K278C]; for k(Cdk2)/k(GSH) rate enhancement: model thiol glutathione
T1 construct: poly-histidine; made in house; host or cells: E. coli
In short: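 Rate enhancement: first-order decay constant with Cdk2 over that with a model thiol. Thiols (5 μM, degassed phosphate buffer pH 8, immobilized TCEP) were incubated with acrylamides at room temperature, and thiol consumption followed by fluorescence at 380/470 nm, normalized to DMSO control. Cdk2 was His-tagged, E. coli-expressed, with one surface cysteine (C177).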

Cdk2[C177A, F80C, K278C] = target: T2, Cdk2[C177A, F80C, K278C] (Homo sapiens, UniProt P24941, C177A/F80C/K278C); experiment: Kinetic thiol consumption assay with mutant Cdk2 as model thiol; format: binding; set-up: unit not given here; conditions: 500 μM ligand, 5 μM thiol, phosphate buffer pH 8
T2 construct: poly-histidine; made in house; host or cells: E. coli
In short: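 Model thiol: His-tagged human Cdk2 C177A/F80C/K278C (two engineered surface cysteines), E. coli-expressed, 5 μM in degassed phosphate buffer pH 8 with immobilized TCEP beads (2% v/v). Fluorescence (ex/em 380/470 nm) followed over time at room temperature, normalized to DMSO/thiol control. First-order decay fit gives rate constants.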

Cdk2(C177A, F80C) = target: T3, Cdk2(C177A, F80C) (Homo sapiens, UniProt P24941, C177A/F80C); experiment: Kinetic thiol consumption assay with Cdk2 mutant F80C, incl. kobs versus concentration (Kd, k2); format: binding; set-up: key to Rate enhancement, Cdk2 F80C: Cdk2 rate constant divided by model-thiol rate constant; conditions: additional mutation C177A; for Rate constant with Cdk2 F80C: Protein: Cdk2, cysteine position F80C, in h^-1
T3 construct: poly-histidine; made in house; host or cells: E. coli
In short: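 His-tagged Cdk2(C177A/F80C) from E. coli or model thiol, 5 μM in degassed phosphate buffer pH 8 with TCEP beads, reacted with acrylamide ligands; fluorescence (ex/em 380/470 nm) normalized to DMSO control and fitted to first-order decay for kobs. Kd and k2 obtained from hyperbolic fit of kobs versus ligand concentration.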

Cdk2(H71C) (C177A) = target: T4, Cdk2(H71C) (C177A) (Homo sapiens, UniProt P24941, C177A/H71C); experiment: Kinetic thiol consumption assay with Cdk2 mutant H71C; format: binding; set-up: key to Rate enhancement, Cdk2 H71C: rate constant with Cdk2 ÷ rate constant with model thiol (fold); conditions: additional mutation C177A; for Rate constant with Cdk2 H71C: Protein: Cdk2, cysteine position H71C, in h^-1
T4 construct: poly-histidine; made in house; host or cells: E. coli
In short: (§1)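 5 μM thiol, degassed phosphate pH 8, 2% v/v immobilized TCEP beads; 1 h RT; fluorescence ex 380/em 470 nm; normalized vs DMSO/thiol-only; first-order exponential decay fit → rate constant; Cdk2 k / model-thiol k = rate enhancement per acrylamide.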

Cdk2(S276C) (C177A) = target: T5, Cdk2(S276C) (C177A) (Homo sapiens, UniProt P24941, C177A/S276C); experiment: Kinetic thiol consumption assay with Cdk2 mutant S276C; format: binding; set-up: key to Rate enhancement, Cdk2 S276C: rate constant with Cdk2 ÷ rate constant with model thiol (fold); conditions: additional mutation C177A; for Rate constant with Cdk2 S276C: Protein: Cdk2, cysteine position S276C, in h^-1
T5 construct: poly-histidine; made in house; host or cells: E. coli
In short: as §1

Cdk2(N272C) (C177A) = target: T6, Cdk2(N272C) (C177A) (Homo sapiens, UniProt P24941, C177A/N272C); experiment: Kinetic thiol consumption assay with Cdk2 mutant N272C; format: binding; set-up: key to Rate enhancement, Cdk2 N272: rate constant with Cdk2 ÷ rate constant with model thiol (fold); conditions: for Rate enhancement, Cdk2 N272: Cdk2 N272, additional mutation C177A; for Rate constant with Cdk2 N272C: Protein: Cdk2, cysteine position N272C, additional mutation C177A, in h^-1
T6 construct: poly-histidine; made in house; host or cells: E. coli
In short: as §1

Cdk2(T182C) (C177A) = target: T7, Cdk2(T182C) (C177A) (Homo sapiens, UniProt P24941, C177A/T182C); experiment: Kinetic thiol consumption assay with Cdk2 mutant T182C; format: binding; set-up: key to Rate enhancement, Cdk2 T182C: rate constant with Cdk2 ÷ rate constant with model thiol (fold); conditions: additional mutation C177A; for Rate constant with Cdk2 T182C: Protein: Cdk2, cysteine position T182C, in h^-1
T7 construct: poly-histidine; made in house; host or cells: E. coli
In short: as §1

Cdk2(R122C) (C177A) = target: T8, Cdk2(R122C) (C177A) (Homo sapiens, UniProt P24941, C177A/R122C); experiment: Kinetic thiol consumption assay with Cdk2 mutant R122C; format: binding; set-up: key to Rate enhancement, Cdk2 R122C: rate constant with Cdk2 ÷ rate constant with model thiol (fold); conditions: additional mutation C177A; for Rate constant with Cdk2 R122C: Protein: Cdk2, cysteine position R122C, in h-1
T8 construct: poly-histidine; made in house; host or cells: E. coli
In short: as §1

Cdk2(S181C) (C177A) = target: T9, Cdk2(S181C) (C177A) (Homo sapiens, UniProt P24941, C177A/S181C); experiment: Kinetic thiol consumption assay with Cdk2 mutant S181C; format: binding; set-up: key to Rate enhancement, Cdk2 S181C: rate constant with Cdk2 ÷ rate constant with model thiol (fold); conditions: additional mutation C177A; for Rate constant with Cdk2 S181C: Protein: Cdk2, cysteine position S181C, in h^-1
T9 construct: poly-histidine; made in house; host or cells: E. coli
In short: as §1

Rate constant with Cdk2 (k(Cdk2)) [2] | Rate enhancement, Cdk2 WT [2] | Rate constant with Cdk2 WT [2] | k(Cdk2)/k(Cdk2_mut) rate enhancement [2] | k(Cdk2)/k(GSH) rate enhancement [2] | Rate constant with Cdk2[C177A, F80C, K278C] (k(Cdk2_mut)) (Cdk2[C177A, F80C, K278C]) | Rate enhancement, Cdk2 F80C (Cdk2(C177A, F80C)) | Rate constant with Cdk2 F80C (Cdk2(C177A, F80C)) | Rate enhancement, Cdk2 H71C (Cdk2(H71C) (C177A)) | Rate enhancement, Cdk2 S276C (Cdk2(S276C) (C177A)) | Rate constant with Cdk2 S276C (Cdk2(S276C) (C177A)) | Rate enhancement, Cdk2 N272 (Cdk2(N272C) (C177A)) | Rate constant with Cdk2 N272C (Cdk2(N272C) (C177A)) | Rate enhancement, Cdk2 T182C (Cdk2(T182C) (C177A)) | Rate constant with Cdk2 T182C (Cdk2(T182C) (C177A)) | Rate enhancement, Cdk2 R122C (Cdk2(R122C) (C177A)) | Rate constant with Cdk2 R122C (Cdk2(R122C) (C177A)) | Rate enhancement, Cdk2 S181C (Cdk2(S181C) (C177A)) | SMILES | Rate constant with glutathione (k(GSH)) [1] | Rate constant with Glutathione [1] | other results
0.00341 | 0.4606 | 0.003421 | 1.51 | 0.4373 | 0.00226 | 0.3417 | 0.002538 | 0.8384 | 0.9981 | 0.007413 | 0.6801 | 0.005051 | 1.305 | 0.009691 | 0.3078 | 0.002286 | 0.396 | C=CC(=O)NC(C)c1cc(OC)c(OC)c(OC)c1 (centres unmarked) [EL-1101] | 0.0078 | 0.007427 | Rate constant with Cdk2 H71C (Cdk2(H71C) (C177A)): 0.006227; Rate constant with Cdk2 S181C (Cdk2(S181C) (C177A)): 0.002941
0.00298 | 0.6621 | 0.003025 | 0.8251 | 0.6464 | 0.00361 | 0.1378 | 0.0006296 | 0 | 1.226 | 0.005603 | 0.3701 | 0.001691 | 0.6691 | 0.003057 | 0.3414 | 0.00156 | 0.6373 | C=CC(=O)NC(C)c1ccc2c(c1)OCO2 (centres unmarked) [EL-1051] | 0.00461 | 0.004569 | Rate constant with Cdk2 S181C (Cdk2(S181C) (C177A)): 0.002912

Second part, the compound before the results:

SMILES | Rate constant with Cdk2 (k(Cdk2)) [2] | Rate enhancement, Cdk2 WT [2] | Rate constant with Cdk2 WT [2] | k(Cdk2)/k(Cdk2_mut) rate enhancement [2] | k(Cdk2)/k(GSH) rate enhancement [2] | Rate constant with Cdk2[C177A, F80C, K278C] (k(Cdk2_mut)) (Cdk2[C177A, F80C, K278C]) | Rate enhancement, Cdk2 F80C (Cdk2(C177A, F80C)) | Rate constant with Cdk2 F80C (Cdk2(C177A, F80C)) | Rate enhancement, Cdk2 H71C (Cdk2(H71C) (C177A)) | Rate enhancement, Cdk2 S276C (Cdk2(S276C) (C177A)) | Rate constant with Cdk2 S276C (Cdk2(S276C) (C177A)) | Rate enhancement, Cdk2 N272 (Cdk2(N272C) (C177A)) | Rate constant with Cdk2 N272C (Cdk2(N272C) (C177A)) | Rate enhancement, Cdk2 T182C (Cdk2(T182C) (C177A)) | Rate constant with Cdk2 T182C (Cdk2(T182C) (C177A)) | Rate enhancement, Cdk2 R122C (Cdk2(R122C) (C177A)) | Rate constant with Cdk2 R122C (Cdk2(R122C) (C177A)) | Rate enhancement, Cdk2 S181C (Cdk2(S181C) (C177A)) | Rate constant with glutathione (k(GSH)) [1] | Rate constant with Glutathione [1] | other results
C=CC(=O)N1CCN(C(=O)OC(C)(C)C)CC1 [CA-029] | 0.00892 | 0.4226 | 0.008917 | 1.45 | 0.5196 | 0.00615 | 0.1236 | 0.002607 | 0.1266 | 0.3272 | 0.006904 | 0.2719 | 0.005738 | 1.766 | 0.03726 | 0.2033 | 0.004289 | 0.3298 | 0.01716 | 0.0211 | Rate constant with Cdk2 H71C (Cdk2(H71C) (C177A)): 0.002672; Rate constant with Cdk2 S181C (Cdk2(S181C) (C177A)): 0.006959
C=CC(=O)N1CCn2cccc2C1c1ccccc1 (centres unmarked) [CA-187] | 0.02811 | 0.6381 | 0.02811 | 1.586 | 0.6384 | 0.01772 | 0.3805 | 0.01676 | 1.456 | 1.852 | 0.08156 | 0.7126 | 0.03139 | 4.62 | 0.2035 | 0.4465 | 0.01967 | 0.2036 | 0.04403 | 0.04405 | Rate constant with Cdk2 H71C (Cdk2(H71C) (C177A)): 0.06414; Rate constant with Cdk2 S181C (Cdk2(S181C) (C177A)): 0.00897
C=CC(=O)N(c1ccc2c(c1)OCCO2)C1CC1 [CA-167] | 0.01101 | 0.4756 | 0.01101 | 4.177 | 1.091 | 0.00264 | 0.289 | 0.00669 | 0.1567 | 0.3514 | 0.008135 | 0.2702 | 0.006256 | 2.016 | 0.04668 | 0.1363 | 0.003155 | 0.343 | 0.01009 | 0.02315 | Rate constant with Cdk2 H71C (Cdk2(H71C) (C177A)): 0.003628; Rate constant with Cdk2 S181C (Cdk2(S181C) (C177A)): 0.00794
C=CC(=O)N1CC2CCN(Cc3ccccc3)C2C1 (centres unmarked) [CA-190] | 0.00347 | 0.248 | 0.003469 | 1.136 | 0.2735 | 0.00305 | 0.3783 | 0.005293 | 0 | 0.3527 | 0.004934 | 0.2334 | 0.003265 | 0.8134 | 0.01138 | 0.501 | 0.007009 | 0.2548 | 0.01268 | 0.01399 | Rate constant with Cdk2 S181C (Cdk2(S181C) (C177A)): 0.003565
C=CC(=O)N1CC2(CCC2)c2c(F)cccc21 [CA-188] | 0.55 | 2.768 | 0.55 | 0.4737 | 2.89 | 1.161 | 2.57 | 0.5106 | 1.537 | 0.03818 | 0.007587 | 0.3173 | 0.06304 | 1.883 | 0.3741 | 0.08933 | 0.01775 | 0.2482 | 0.1903 | 0.1987 | Rate constant with Cdk2 H71C (Cdk2(H71C) (C177A)): 0.3055; Rate constant with Cdk2 S181C (Cdk2(S181C) (C177A)): 0.04931
